Measurements reported in patent US20080114007A1 (priority 2006, published 2008).

Target: CSF-1R (Homo sapiens, UniProt P07333)
Assay: Peptide (non-phosphorylated) assay, fluorescence polarization competition immunoassay
Format: biochemical
Conditions: 0.7 nM CSF-1R, 308 μM SYEGNSYTFIDPTQ peptide, 1 mM ATP, 80 min; mean of at least three determinations; read-out: c-fms Peptide IC50
Experimental: The kinase reaction was initiated by adding 1 μL of 10 mM ATP in assay buffer. […] Positive and negative control wells were included on each plate, where 4% DMSO in assay buffer was substituted for the compound; in addition, positive control wells received 1.2 μL of 50 mM EDTA before the start of the reaction.
The plates were covered and incubated at room temperature for 80 min. Reactions were stopped by addition of 1.2 μL of 50 mM EDTA. Each well then received 10 μL of a 1:1:3 mixture of 10× anti-phosphotyrosine antibody, 10×PTK green tracer, and FP dilution buffer, respectively (Cat. # P2837, Invitrogen, Carlsbad, Calif.). The plates were covered, incubated for 30 min at room temperature, and the fluorescence polarization was read on an Analyst plate reader (Molecular Devices).

CSF-1R, sequence (P07333 20-972): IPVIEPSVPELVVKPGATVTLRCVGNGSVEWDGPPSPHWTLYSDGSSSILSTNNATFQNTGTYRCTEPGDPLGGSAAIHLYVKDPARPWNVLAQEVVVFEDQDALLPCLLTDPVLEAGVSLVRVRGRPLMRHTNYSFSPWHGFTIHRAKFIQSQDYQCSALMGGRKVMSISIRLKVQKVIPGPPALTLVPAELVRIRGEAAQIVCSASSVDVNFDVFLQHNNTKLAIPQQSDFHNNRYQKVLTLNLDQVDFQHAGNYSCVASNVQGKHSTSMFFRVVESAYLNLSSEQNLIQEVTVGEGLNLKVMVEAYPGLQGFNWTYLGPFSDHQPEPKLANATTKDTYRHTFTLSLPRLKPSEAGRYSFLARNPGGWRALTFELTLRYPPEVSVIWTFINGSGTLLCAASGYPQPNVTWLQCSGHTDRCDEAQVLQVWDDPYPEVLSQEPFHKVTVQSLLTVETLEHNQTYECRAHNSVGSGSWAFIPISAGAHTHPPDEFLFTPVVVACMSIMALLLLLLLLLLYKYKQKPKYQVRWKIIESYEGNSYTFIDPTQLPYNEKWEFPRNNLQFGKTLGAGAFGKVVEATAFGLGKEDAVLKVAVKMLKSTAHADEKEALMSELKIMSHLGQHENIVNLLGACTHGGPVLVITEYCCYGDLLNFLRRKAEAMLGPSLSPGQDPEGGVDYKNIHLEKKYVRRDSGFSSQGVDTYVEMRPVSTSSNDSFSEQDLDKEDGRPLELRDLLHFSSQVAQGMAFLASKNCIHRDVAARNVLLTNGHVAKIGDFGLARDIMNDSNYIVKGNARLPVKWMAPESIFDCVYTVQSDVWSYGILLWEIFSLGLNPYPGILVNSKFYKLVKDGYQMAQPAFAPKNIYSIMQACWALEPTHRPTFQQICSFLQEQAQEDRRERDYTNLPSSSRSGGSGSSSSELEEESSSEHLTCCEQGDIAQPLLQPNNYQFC

IC50 [nM] | SMILES
0.5 | CCc1ccc(-n2cc(C(=O)NOC)c(=O)c3cnc(Nc4cccc(N5CCOCC5)c4)nc32)cc1 [Cpd 320, 8-(4-ethyl-phenyl)-2-(3-morpholin-4-yl-phenylamino)-5-oxo-5,8-dihydro-pyrido[2,3-d]pyrimidine-6-carboxylic acid methoxy-amide]
7.7 | CONC(=O)c1cn(-c2cnc3c(c2)CCC3)c2nc(Nc3ccc(CCS(C)(=O)=O)cc3)ncc2c1=O [Cpd 226, 8-(6,7-dihydro-5H-[1]pyrindin-3-yl)-2-[4-(2-methanesulfonyl-ethyl)-phenylamino]-5-oxo-5,8-dihydro-pyrido[2,3-d]pyrimidine-6-carboxylic acid methoxy-amide]
1.5 | CCc1ccc(-n2cc(C(=O)NOC)c(=O)c3cnc(Nc4ccc5c(c4)N(C(C)=O)CC5)nc32)cc1 [Cpd 281, 2-(1-acetyl-2,3-dihydro-1H-indol-6-ylamino)-8-(4-ethyl-phenyl)-5-oxo-5,8-dihydro-pyrido[2,3-d]pyrimidine-6-carboxylic acid methoxy-amide]
0.2 | CCN1CCC(Oc2ccc(Nc3ncc4c(=O)c(C(=O)NOC)cn(-c5ccc6c(c5)CCC6)c4n3)cc2)CC1 [Cpd 312, 2-[4-(1-ethyl-piperidin-4-yloxy)-phenylamino]-8-indan-5-yl-5-oxo-5,8-dihydro-pyrido[2,3-d]pyrimidine-6-carboxylic acid methoxy-amide]
2.2 | CONC(=O)c1cn(-c2ccc3c(c2)CCC3)c2nc(Nc3ccc(-n4cccn4)cc3)ncc2c1=O [Cpd 284, 8-indan-5-yl-5-oxo-2-(4-pyrazol-1-yl-phenylamino)-5,8-dihydro-pyrido[2,3-d]pyrimidine-6-carboxylic acid methoxy-amide]
0.5 | CONC(=O)c1cn(-c2ccc3c(c2)CCC3)c2nc(Nc3ccc(C4C[C@@]5(C)O[C@@](C)(C4)[C@H]4OC(C)(C)O[C@H]45)cc3)ncc2c1=O (stereo partly drawn) [Cpd 315, 8-indan-5-yl-5-oxo-2-[4-(2aR,1R,7S,6aS)-(1,4,4,7-tetramethyl-3,5,11-trioxa-tricyclo[5.3.1.0^2,6]undec-9-yl)-phenylamino]-5,8-dihydro-pyrido[2,3-d]pyrimidine-6-carboxylic acid methoxy-amide]
1.1 | CONC(=O)c1cn(-c2ccc3c(c2)CCC3)c2nc(Nc3cccc(N(C)C)c3)ncc2c1=O [Cpd 326, 2-(3-dimethylamino-phenylamino)-8-indan-5-yl-5-oxo-5,8-dihydro-pyrido[2,3-d]pyrimidine-6-carboxylic acid methoxy-amide]
0.4 | CCc1ccc(-n2cc(C(=O)NOC)c(=O)c3cnc(Nc4ccc(OC5CCNCC5)cc4)nc32)cc1 [Cpd 307, 8-(4-ethyl-phenyl)-5-oxo-2-[4-(piperidin-4-yloxy)-phenylamino]-5,8-dihydro-pyrido[2,3-d]pyrimidine-6-carboxylic acid methoxy-amide]
0.44 | CONC(=O)c1cn(-c2ccc3c(c2)CCC3)c2nc(Nc3cccc(C4(O)CCNC4)c3)ncc2c1=O (stereo not drawn) [Cpd 274, 2-[3-(3-hydroxy-pyrrolidin-3-yl)-phenylamino]-8-indan-5-yl-5-oxo-5,8-dihydro-pyrido[2,3-d]pyrimidine-6-carboxylic acid methoxy-amide]
0.4 | CCc1ccc(-n2cc(C(=O)NOC)c(=O)c3cnc(Nc4ccc5c(c4)CCN5S(C)(=O)=O)nc32)cc1 [Cpd 280, 8-(4-ethyl-phenyl)-2-(1-methanesulfonyl-2,3-dihydro-1H-indol-5-ylamino)-5-oxo-5,8-dihydro-pyrido[2,3-d]pyrimidine-6-carboxylic acid methoxy-amide]

Further lines, the molecule ahead of its results:

SMILES | IC50 [nM]
CONC(=O)c1cn(-c2ccc3c(c2)CCC3)c2nc(Nc3cccc(N4CCN(C(C)=O)CC4)c3)ncc2c1=O [Cpd 196, 2-[3-(4-acetyl-piperazin-1-yl)-phenylamino]-8-indan-5-yl-5-oxo-5,8-dihydro pyrido[2,3-d]pyrimidine-6-carboxylic acid methoxy-amide] | 1.7
CONC(=O)c1cn(-c2ccc3c(c2)CCC3)c2nc(Nc3cccc(N4CCNCC4)c3)ncc2c1=O [Cpd 2, 8-indan-5-yl-5-oxo-2-(3-piperazin-1-yl-phenylamino)-5,8-dihydro-pyrido[2,3-d]pyrimidine-6-carboxylic acid methoxy-amide] | 0.56
CCONC(=O)c1cn(C2CCCC2)c2nc(Nc3ccc(CCN4CCCC4)cc3)ncc2c1=O [Cpd 40, 8-cyclopentyl-5-oxo-2-[4-(2-pyrrolidin-1-yl-ethyl)-phenylamino]-5,8-dihydro-pyrido[2,3-d]pyrimidine-6-carboxylic acid ethoxy-amide] | 6.8
CCONC(=O)c1cn(C2CCCCC2)c2nc(Nc3ccc(CCN4CCN(C)CC4)cc3)ncc2c1=O [Cpd 19, 8-cyclohexyl-2-{4-[2-(4-methyl-piperazin-1-yl)-ethyl]-phenylamino}-5-oxo-5,8-dihydro-pyrido[2,3-d]pyrimidine-6-carboxylic acid ethoxy-amide] | 1
CONC(=O)c1cn(-c2ccc3c(c2)CCC3)c2nc(Nc3ccc(CCN4CCN(S(C)(=O)=O)CC4)cc3)ncc2c1=O [Cpd 146, 8-indan-5-yl-2-{4-[2-(4-methanesulfonyl-piperazin-1-yl)-ethyl]-phenylamino}-5-oxo-5,8-dihydro-pyrido[2,3-d]pyrimidine-6-carboxylic acid methoxy-amide] | 1.2
CCc1ccc(-n2cc(C(=O)NOC)c(=O)c3cnc(Nc4ccc(C5CCN(CCO)CC5)cc4)nc32)cc1 [Cpd 95, 8-(4-ethyl-phenyl)-2-{4-[1-(2-hydroxy-ethyl)-piperidin-4-yl]-phenylamino}-5-oxo-5,8-dihydro-pyrido[2,3-d]pyrimidine-6-carboxylic acid methoxy-amide] | 1.8
CONC(=O)c1cn(-c2ccc3c(c2)CCC3)c2nc(Nc3cccc(CCN4CCN(C(C)=O)CC4)c3)ncc2c1=O [Cpd 204, 2-{3-[2-(4-acetyl-piperazin-1-yl)-ethyl]-phenylamino}-8-indan-5-yl-5-oxo-5,8-dihydro-pyrido[2,3-d]pyrimidine-6-carboxylic acid methoxy-amide] | 1.2
CONC(=O)c1cn(C2CCCCC2)c2nc(Nc3ccc(C(=O)N4CCCC4)cc3)ncc2c1=O [Cpd 11, 8-cyclohexyl-5-oxo-2-[4-(pyrrolidine-1-carbonyl)-phenylamino]-5,8-dihydro-pyrido[2,3-d]pyrimidine-6-carboxylic acid methoxy-amide] | > 300
CCONC(=O)c1cn(-c2ccc(CC)cc2)c2nc(Nc3ccc(C4CCN(CC)CC4)cc3)ncc2c1=O [Cpd 181, 8-(4-ethyl-phenyl)-2-[4-(1-ethyl-piperidin-4-yl)-phenylamino]-5-oxo-5,8-dihydro-pyrido[2,3-d]pyrimidine-6-carboxylic acid ethoxy-amide] | 0.2
CONC(=O)c1cn(C2CCCC2)c2nc(Nc3ccc(C4CCN(C(C)=O)CC4)cc3)ncc2c1=O [Cpd 46, 2-[4-(1-acetyl-piperidin-4-yl)-phenylamino]-8-cyclopentyl-5-oxo-5,8-dihydro-pyrido[2,3-d]pyrimidine-6-carboxylic acid methoxy-amide] | 2.6
CONC(=O)c1cn(-c2ccc(C)c(C)c2)c2nc(Nc3ccc(CCN4CCN(C)CC4)cc3)ncc2c1=O [Cpd 52, 8-(3,4-dimethyl-phenyl)-2-{4-[2-(4-methyl-piperazin-1-yl)-ethyl]-phenylamino}-5-oxo-5,8-dihydro-pyrido[2,3-d]pyrimidine-6-carboxylic acid methoxy-amide] | 0.8
C#Cc1ccc(-n2cc(C(=O)NOC)c(=O)c3cnc(Nc4ccc(CCN5CCN(C)CC5)cc4)nc32)cc1 [Cpd 31, 8-(4-ethynyl-phenyl)-2-{4-[2-(4-methyl-piperazin-1-yl)-ethyl]-phenylamino}-5-oxo-5,8-dihydro-pyrido[2,3-d]pyrimidine-6-carboxylic acid methoxy-amide] | 2.6
CCONC(=O)c1cn(-c2ccc3c(c2)CCC3)c2nc(Nc3ccc(S(=O)(=O)N(C)C)cc3)ncc2c1=O [Cpd 136, 2-(4-dimethylsulfamoyl-phenylamino)-8-indan-5-yl-5-oxo-5,8-dihydro-pyrido[2,3-d]pyrimidine-6-carboxylic acid ethoxy-amide] | 4.2
CN1CCN(CCc2ccc(Nc3ncc4c(=O)c(C(N)=O)cn(-c5ccc(F)c(Cl)c5)c4n3)cc2)CC1 [Cpd 3, 8-(3-chloro-4-fluoro-phenyl)-2-{4-[2-(4-methyl-piperazin-1-yl)-ethyl]-phenylamino}-5-oxo-5,8-dihydro-pyrido[2,3-d]pyrimidine-6-carboxylic acid amide] | 28
CONC(=O)c1cn(-c2ccc3c(c2)CCC3)c2nc(Nc3cccc(C4(O)CCN(CC(F)(F)F)CC4)c3)ncc2c1=O [Cpd 277, 2-{3-[4-hydroxy-1-(2,2,2-trifluoro-ethyl)-piperidin-4-yl]-phenylamino}-8-indan-5-yl-5-oxo-5,8-dihydro-pyrido[2,3-d]pyrimidine-6-carboxylic acid methoxy-amide] | 2.7
CONC(=O)c1cn(-c2ccc3c(c2)CCC3)c2nc(Nc3ccc(CCNC4CC5CCC4C5)cc3)ncc2c1=O (stereo not drawn) [Cpd 108, 2-{4-[2-(bicyclo[2.2.1]hept-2-ylamino)-ethyl]-phenylamino}-8-indan-5-yl-5-oxo-5,8-dihydro-pyrido[2,3-d]pyrimidine-6-carboxylic acid methoxy-amide] | 0.88
CONC(=O)c1cn(C2CCCCC2)c2nc(Nc3ccc(CN4CCCC4=O)cc3)ncc2c1=O [Cpd 12, 8-cyclohexyl-5-oxo-2-[4-(2-oxo-pyrrolidin-1-ylmethyl)-phenylamino]-5,8-dihydro-pyrido[2,3-d]pyrimidine-6-carboxylic acid methoxy-amide] | 1.3
